Measured values from US7381744B1, “Method of treating osteoporosis comprising vacuolar-type (H+)-ATPase-inhibiting compounds” (The United States of America as represented by the …, priority 1999, dated 2008).

Key:
Assay type in all cases: biochemical
[1] = test system: vacuolar-type (H+)-ATPase derived from human kidney cells (hK); assay: vacuolar-type (H+)-ATPase inhibition assay, membrane vesicles (hK); details: bafilomycin-sensitive activity; oligomycin 5 μg/ml and vanadate 1 mM present; 37°, 30 minutes
Experimental: (§1) Inhibition of bafilomycin-sensitive vacuolar-type (H+)-ATPase activity was measured in partially purified membrane vesicle preparations from human osteoclastoma cells (hOc), human renal cortical cells (hK), and macrophage cells (J774). The vesicles were prepared by appropriate adaptations of methods described in Gagliardi et al., J. Med. Chem., 41, 1568-1573 (1998); and Gagliardi et al., J. Med. Chem., 41, 1883-1893 (1998).
(§2) Vacuolar-type (H+)-ATPase assays were performed in the presence of oligomycin (5 μg/ml) and vanadate (1 mM) as inhibitors of F- and P-ATPases, respectively. A […] method was used to quantitate the residual bafilomycin-sensitive vacuolar-type (H+)-ATPase activity (see Chan et al., Anal. Biochem., 157, 375-380 (1986)). The assay measures the release of inorganic phosphate from ATP at 37° during 30 minutes of incubation. The reaction is initiated by the addition of MgSO4 ([…]).

[2] = test system: vacuolar-type (H+)-ATPase derived from macrophage cells (J774); assay: vacuolar-type (H+)-ATPase inhibition assay, membrane vesicles (J774); details: bafilomycin-sensitive activity; oligomycin 5 μg/ml and vanadate 1 mM present; 37°, 30 minutes
Experimental: as §1, §2

[3] = test system: mammalian vacuolar-type (H+)-ATPase (from chromaffin granule membranes); assay: mammalian vacuolar-type (H+)-ATPase inhibition, side-by-side test; details: mammalian versus fungal enzyme
Excerpt: The inhibitory data were obtained using the same procedures and biological preparations described in Bowman et al., Proc. Natl. Acad. Sci. USA, 85, 7972-7976 (November 1988).

SMILES: CO/N=C/C=C\C(=O)N/C=C/CC1CC(=O)OC(C)/C=C/C(O)/C(C)=C\Cc2cccc(O)c2C(=O)O1 (stereo not drawn) [lobatamide A]
- IC50 [1]: 1.8 nM
- IC50 [2]: 2.8 nM
- selectivity for mammalian versus fungal vacuolar-type (H+)-ATPase [3]: highly selective
